# Results published in US4293713A, “Novel 1,1,3,5-substituted biuret compound and a pharmaceutical composition containing the same” (priority 1979, dated 1981).
# Test system: ddy strain of male mice
# Assay: Acute toxicity (oral, 7 days observation)
# Format: in vivo
# Details: 1000 mg/kg, oral, mice, 7 days
# Procedure: (§1) Next, several tests for determining the pharmacological properties, in that acute toxicity, anti-pyretic activity, analgesic activity and anti-inflammatory activity of the present 1,1,3,5-substituted biuret compounds of the formula (1) were conducted and the test results are shown in Table (2). In the tests, each compounds to be tested was used as a suspension in 0.25% carboxymethylcellulose solution. Methods for testing are explained as follows:
# The ddy strain of male mice (body weight, 20-25 g) were used as test animals. The mice were fasted overnight and the compound to be tested was administered orally. […] The lethal dose (mg/kg, body weight) of the test compound was determined in connection with the death number of mice/the number of mice tested. In Table 2, the values indicated with Δ marks are 50% lethal dose, LD50 (mg/kg, body weight).
row,Structure (SMILES),"Acute toxicity, death number of mice/number of mice tested"
1,"Cc1c(Cl)cccc1NC(=O)N(C)C(=O)N(C)C [compound 26, 1,1,3-Trimethyl-5-(2-methyl-3-chlorophenyl)biuret]",1/4
2,"CSc1ccc(NC(=O)N(C)C(=O)N(C)C)cc1 [compound 28, 1,1,3-Trimethyl-5-(4-methylthiophenyl)biuret]",0/4
3,"CCN(C(=O)Nc1ccccc1)C(=O)N(C)C [compound 30, 1,1-Dimethyl-3-ethyl-5-phenylbiuret]",0/4
4,"CCCCN(C(=O)Nc1ccccc1)C(=O)N(C)C [compound 32, 1,1-Dimethyl-3-n-butyl-5-phenylbiuret]",0/4
5,"CCCCN(C)C(=O)N(C)C(=O)Nc1ccccc1 [compound 35, 1-n-Butyl-1,3-dimethyl-5-phenylbiuret]",0/4

# Same assay, conditions: 2000 mg/kg, oral, mice, 7 days
row,Structure (SMILES),"Acute toxicity, death number of mice/number of mice tested"
1,"Cc1ccc(NC(=O)N(C)C(=O)N(C)C)cc1 [Compound No. 22, 1,1,3-Trimethyl-5-(4-methylphenyl)biuret]",0/4
2,"Cc1ccc(NC(=O)N(C)C(=O)N(C)C)cc1C [Compound No. 25, 1,1,3-Trimethyl-5-(3,4-dimethylphenyl)biuret]",1/4
3,"Cc1c(Cl)cccc1NC(=O)N(C)C(=O)N(C)C [compound 26, 1,1,3-Trimethyl-5-(2-methyl-3-chlorophenyl)biuret]",4/4
4,"CSc1ccc(NC(=O)N(C)C(=O)N(C)C)cc1 [compound 28, 1,1,3-Trimethyl-5-(4-methylthiophenyl)biuret]",4/4
5,"CCN(C(=O)Nc1ccccc1)C(=O)N(C)C [compound 30, 1,1-Dimethyl-3-ethyl-5-phenylbiuret]",3/4
6,"CCCN(C(=O)Nc1ccccc1)C(=O)N(C)C [compound 31, 1,1-Dimethyl-3-n-propyl-5-phenylbiuret]",0/4
7,"CCCCN(C(=O)Nc1ccccc1)C(=O)N(C)C [compound 32, 1,1-Dimethyl-3-n-butyl-5-phenylbiuret]",3/4
8,"CCCCN(C)C(=O)N(C)C(=O)Nc1ccccc1 [compound 35, 1-n-Butyl-1,3-dimethyl-5-phenylbiuret]",3/4

# Test system: Wistar strain of male rats
# Assay: Anti-pyretic activity (dry-yeast induced fever)
# Format: in vivo, rat (Wistar strain
# Details: oral, up to 4 hours after administration, dose not given
# Procedure: as §1
# According to the method reported by Tanabe [Folia Pharmacologia Japonica, Vol. 73, pp. 803 (1977)], the Wistar strain of male rats (150-180 g body weight) were used as test animals. The rats were fasted overnight, and 1 ml/100 g (body weight) of 10% dry-yeast suspension were subcutaneously injected on the back of the rats. Five hours after the injection, the test compound was administered orally, then the body temperature of the rat was measured at time sequences. Anti-pyretic activity of the test compound was determined as the FI (febril index) by integrating pyrogenetic curve up to 4 hours after the administration of the test compound with time, and indicated as inhibitory ratio (%) shown by the following formula, [formula]
row,Structure (SMILES),"Anti-pyretic activity, inhibitory ratio of febril index (FI)"
1,"Cc1ccc(NC(=O)N(C)C(=O)N(C)C)cc1 [Compound No. 22, 1,1,3-Trimethyl-5-(4-methylphenyl)biuret]",52%
2,"Cc1ccc(NC(=O)N(C)C(=O)N(C)C)cc1C [Compound No. 25, 1,1,3-Trimethyl-5-(3,4-dimethylphenyl)biuret]",31%
3,"Cc1c(Cl)cccc1NC(=O)N(C)C(=O)N(C)C [compound 26, 1,1,3-Trimethyl-5-(2-methyl-3-chlorophenyl)biuret]",45%
4,"CCN(C(=O)Nc1ccccc1)C(=O)N(C)C [compound 30, 1,1-Dimethyl-3-ethyl-5-phenylbiuret]",12%
5,"CCCN(C(=O)Nc1ccccc1)C(=O)N(C)C [compound 31, 1,1-Dimethyl-3-n-propyl-5-phenylbiuret]",12%
6,"CCCCN(C(=O)Nc1ccccc1)C(=O)N(C)C [compound 32, 1,1-Dimethyl-3-n-butyl-5-phenylbiuret]",18%
7,"CCCCN(C)C(=O)N(C)C(=O)Nc1ccccc1 [compound 35, 1-n-Butyl-1,3-dimethyl-5-phenylbiuret]",35%

# Test system: ddy strain of male mice
# Assay: Analgesic activity, acetic acid-induced stretching method
# Format: in vivo, mouse (ddy strain
# Details: Mus musculus, po, read-out: Analgesic activity, acetic acid-induced stretching method, 50% effective dose, ED50 (values with Δ marks)
# Procedure: as §1
# According to the method reported by Koster et al., [Fed. Proc., Vol. 18, pp. 412 (1959)], the ddy strain of male mice (body weight, 20-25 g) were used as test animals. The mice were fasted overnight, 100 mg/kg body weight of the test compound was administered orally, then 1 hour after the administration, 0.2 ml of 0.7% acetic acid solution was injected intraperitoneally. The acetic acid-induced stretching symptom of mouse was observed. Analgesic activity of the test compound was calculated as the inhibitory ratio (%). In Table 2, the values in Parentheses show the data obtained from the test by using the dosage other than 100 mg/kg body weight. Further, the values indicated with Δ marks show 50% effective dose, ED50 (mg/kg body weight).
row,Structure (SMILES),ED50
1,"Cc1ccc(NC(=O)N(C)C(=O)N(C)C)cc1 [Compound No. 22, 1,1,3-Trimethyl-5-(4-methylphenyl)biuret]",33 mg/kg

# Same assay, conditions: Mus musculus, po, read-out: Analgesic activity, acetic acid-induced stretching method, inhibitory ratio
row,Structure (SMILES),inhibition in vivo at 100 mg/kg
1,"Cc1c(Cl)cccc1NC(=O)N(C)C(=O)N(C)C [compound 26, 1,1,3-Trimethyl-5-(2-methyl-3-chlorophenyl)biuret]",75%
2,"CSc1ccc(NC(=O)N(C)C(=O)N(C)C)cc1 [compound 28, 1,1,3-Trimethyl-5-(4-methylthiophenyl)biuret]",50%
3,"CCN(C(=O)Nc1ccccc1)C(=O)N(C)C [compound 30, 1,1-Dimethyl-3-ethyl-5-phenylbiuret]",62.5%
4,"CCCN(C(=O)Nc1ccccc1)C(=O)N(C)C [compound 31, 1,1-Dimethyl-3-n-propyl-5-phenylbiuret]",37.5%
5,"CCCCN(C(=O)Nc1ccccc1)C(=O)N(C)C [compound 32, 1,1-Dimethyl-3-n-butyl-5-phenylbiuret]",37.5%
6,"CCCCN(C)C(=O)N(C)C(=O)Nc1ccccc1 [compound 35, 1-n-Butyl-1,3-dimethyl-5-phenylbiuret]",37.5%

# Same assay, conditions: Mus musculus; 60 mg/kg oral, mice; read-out: Analgesic activity, acetic acid-induced stretching method, inhibitory ratio
row,Structure (SMILES),inhibition in vivo at 60 mg/kg
1,"Cc1ccc(NC(=O)N(C)C(=O)N(C)C)cc1C [Compound No. 25, 1,1,3-Trimethyl-5-(3,4-dimethylphenyl)biuret]",87.5%

# Test system: ddy strain of male mice
# Assay: Analgesic activity, Haffner method
# Format: in vivo, mouse (ddy strain
# Details: 100 mg/kg oral, with threshold morphine hydrochloride s.c.
# Procedure: as §1
# According to the modified method reported by Fujimura et al., [Bulletin of the Institute for Chemical Research, Kyoto University, No. 25, pp. 36 (1951)], the ddy strain of male mice (body weight, 20-25 g) were used as test animals. The mice were fasted overnight, 100 mg/kg body weight of the test compound was administered orally, then 45 minutes after the administration, the threshold amount (1.5-2.5 mg/kg body weight) of morphine hydrochloride was injected subcutaneously. Then 1-hour pain reaction of the mouse caused by a clamp was observed. Analgesic activity of the test compound was calculated as the inhibitory ratio (%). In Table 2, the values in parentheses show the data obtained from the test by using the dosage other than 100 mg/kg body weight. Further, the values indicated with Δ marks show 50% effective dose, ED50 (mg/kg body weight).
row,Structure (SMILES),"Analgesic activity, Haffner method, inhibitory ratio"
1,"Cc1c(Cl)cccc1NC(=O)N(C)C(=O)N(C)C [compound 26, 1,1,3-Trimethyl-5-(2-methyl-3-chlorophenyl)biuret]",25%
2,"CCCCN(C(=O)Nc1ccccc1)C(=O)N(C)C [compound 32, 1,1-Dimethyl-3-n-butyl-5-phenylbiuret]",31%
3,"CCCCN(C)C(=O)N(C)C(=O)Nc1ccccc1 [compound 35, 1-n-Butyl-1,3-dimethyl-5-phenylbiuret]",25%

# Same assay, conditions: 200 mg/kg oral, with threshold morphine hydrochloride s.c.
row,Structure (SMILES),"Analgesic activity, Haffner method, inhibitory ratio"
1,"CCCN(C(=O)Nc1ccccc1)C(=O)N(C)C [compound 31, 1,1-Dimethyl-3-n-propyl-5-phenylbiuret]",62.5%

# Same assay, conditions: oral, with threshold morphine hydrochloride s.c., range in parentheses
row,Structure (SMILES),"Analgesic activity, Haffner method, 50% effective dose, ED50 (values with Δ marks)"
1,"Cc1ccc(NC(=O)N(C)C(=O)N(C)C)cc1 [Compound No. 22, 1,1,3-Trimethyl-5-(4-methylphenyl)biuret]",80(42-152) mg/kg

# Test system: Wistar strain of male rats
# Assay: Anti-inflammatory activity, acute carrageenin-induced inflammatory test
# Format: in vivo, rat (Wistar strain
# Details: Rattus norvegicus, po, 2 h, read-out: Anti-inflammatory activity, inflammation inhibitory ratio (2 hours value)
# Procedure: as §1
# According to the method of acute carrageenin-induced inflammatory test [Folia Pharmacologia Japonica, Vol. 56, pp. 575 (1960)], the Wistar strain of male rats (body weight, 150-180 g) were used as test animals. The rats were fasted overnight, 100 mg/kg body weight of the test compound was administered orally, then 1 hour after the administration, 0.1 ml of 1% carrageenin solution, as the inflammation inducing agent, was injected subcutaneously to the hindpaw of the rat and the volume of the hindpaw was measured at time sequences. Anti-inflammatory activity of the test compound was calculated as inflammation inhibitory ratio (%) at 3 hours after the injection of the inflammation inducing agent.
row,Structure (SMILES),inhibition in vivo at 100 mg/kg
1,"Cc1ccc(NC(=O)N(C)C(=O)N(C)C)cc1 [Compound No. 22, 1,1,3-Trimethyl-5-(4-methylphenyl)biuret]",23%

# Same assay, conditions: Rattus norvegicus, po, 3 h, read-out: Anti-inflammatory activity, inflammation inhibitory ratio
row,Structure (SMILES),inhibition in vivo at 100 mg/kg
1,"CCN(C(=O)Nc1ccccc1)C(=O)N(C)C [compound 30, 1,1-Dimethyl-3-ethyl-5-phenylbiuret]",23%
